In this assay the target is collagenase. Nature of the assay: Collagenase inhibition activity (acetylated 14C collagen hydrolysis, Cawston and Barrett). The format is biochemical. The conditions noted are these: 37°, 16 hours, pH 7.5, read-out: IC50 (inhibitor concentration effecting 50% inhibition of the collagenase). The method, then:
The potency of compounds of general formula I to act as inhibitors of collagenase (a metalloprotease involved in tissue degradation) was determined by the procedure of Cawston and Barrett, (Anal. Biochem., 99, 340-345, 1979) and their potency to act as inhibitors of stromelysin was determined using the procedure of Cawston et al (Biochem. J., 195, 159-165 1981), both of which techniques are to be described more fully in the examples and, to the extent that the law allows, are incorporated by reference herein.
The potency of compounds of general formula I to act as inhibitors of collagenase (a metalloprotease involved in tissue degradation) was determined by the procedure of Cawston and Barrett, (Anal. Biochem., 99, 340-345, 1979), hereby incorporated by reference, whereby a 1 mM solution of the inhibitor being tested or dilutions thereof was incubated at 37° for 16 hours with collagen and collagenase (buffered with 25 mM Hepes, pH 7.5 containing 5 mM CaCl2, 0.05% Brij 35 and 0.02% NAN3). The collagen was acetylated ^14C collagen prepared by the method of Cawston and Murphy (Methods in Enzymology, 80, 711, 1981), hereby incorporated by reference. The samples were centrifuged to sediment undigested collagen and an aliquot of the radioactive supernatant removed for assay on a scintillation counter as a measure of hydrolysis. The collagenase activity in the presence of 1 mM inhibitor, or a dilution thereof, was compared to activity in a control devoid of inhibitor and the results reported below as that inhibitor concentration effecting 50% inhibition of the collagenase (IC50).
`CC(C)C[C@H](CC(=O)NO)C(=O)N[C@@H](Cc1ccccc1)C(=O)N(C)CCO` [Example 2, [4-(N-Hydroxyamino)-2R-isobutylsuccinyl]-L-phenylalanine-N-(2-hydroxyethyl)-N-methylamide]: the IC50 came out at 200 nM. Regarding `CCSCCNC(=O)[C@H](Cc1ccccc1)NC(=O)[C@@H](CC(=O)NO)CC(C)C` [Example 3, [4-(N-Hydroxyamino)-2R-isobutylsuccinyl]-L-phenylalanine-N-(2-ethylthioethyl) amide], the IC50 is 20 nM.

As to `CC(=O)NCCNC(=O)[C@H](Cc1ccccc1)NC(=O)[C@@H](CC(=O)NO)CC(C)C` [Example 4, [4-(N-Hydroxyamino)-2R-isobutylsuccinyl]-L-phenylalanine-N-(2-N-acetylethyl) amide], the IC50 came out at 90 nM.

Source of the values: patent US5453438A, “Hydroxamic acid based collagenase inhibitors” (British Biotech Pharmaceuticals Limited, priority 1989, dated 1995).
